Measured values published in patent US8557812B2, “Small molecule inhibitors of anti-apoptotic BCL-2 family members and the uses thereof” (The Regents of the University of Michigan, priority 2004, dated 2013).

Assays:
[1] = system: MDA-MB-231 (2LMP) cells; assay: Cell growth of MDA-MB-231 (2LMP) cells (WST); type: cell-based; conditions: Homo sapiens, read-out: IC50 of cell growth inhibition
[2] = target: human Bcl-xL (Homo sapiens, UniProt Q07817); assay: Fluorescence polarization in vitro Bcl-xL binding assay; conditions: displacement of Flu-Bak peptide
From the text: For determination of the binding affinity to Bcl-xL protein a human Bcl-xL recombinant His-tagged protein without the C-terminus hydrophobic tail and the Bak-16mer BH3 peptide labeled with 6-carboxyfluorescein succinimidyl ester (FAM) were used.

[3] = target: Bcl-2 (Homo sapiens, UniProt P10415); assay: Fluorescence polarization in vitro Bcl-2 binding assay
Protocol: Bcl-2 used in this assay is a recombinant His-fused soluble protein. […] Inc., Research Triangle Park, N.C.). […] The unlabeled Bid peptide is used as the positive control. The Ki values were calculated using our developed equation for FP assay (Nikolovska-Coleska et al., Anal. Biochem., 2004, in press). The program for calculating a Ki value is available free of charge via the Internet at http://sw16.im.med.umich.edu/software/calc_ki/.

Sequence of Bcl-2 (P10415 92-205 limits assumed): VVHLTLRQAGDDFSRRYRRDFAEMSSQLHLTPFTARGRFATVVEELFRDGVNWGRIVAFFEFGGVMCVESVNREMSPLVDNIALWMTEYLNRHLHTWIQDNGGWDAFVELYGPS
Sequence of human Bcl-xL (Q07817 1-209 limits assumed): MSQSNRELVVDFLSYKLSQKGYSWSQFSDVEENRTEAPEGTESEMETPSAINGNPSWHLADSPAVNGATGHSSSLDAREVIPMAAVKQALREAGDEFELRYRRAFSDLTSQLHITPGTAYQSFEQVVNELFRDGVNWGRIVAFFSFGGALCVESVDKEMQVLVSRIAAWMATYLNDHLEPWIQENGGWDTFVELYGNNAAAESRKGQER

IC50 [1] [nM]	IC50 [2] [nM]	IC50 [3] [nM]	SMILES
100 to 20000			CCCCCCc1cc(C(C)C)c(O)c(O)c1O [TM-103]
100 to 20000			CCCCCC(=O)c1cc(C(C)C)c(O)c(O)c1O [TM-104]
100 to 20000			CCCCCCCCCCCCCCCc1cc(C(C)C)c(O)c(O)c1O [TM-109]
100 to 20000			CCCCCCCCCCCCCCC(=O)c1cc(C(C)C)c(O)c(O)c1O [TM-110]
> 20000			CCCCCCCCCCC(=O)c1cc(C(CCCCCCCCCC)c2ccccc2)c(O)c(O)c1O (stereo not drawn) [TM-124]
100 to 20000			CCCCCCCCCCC(c1ccccc1)c1cc(Cc2ccc(Br)cc2)c(O)c(O)c1O (stereo not drawn) [TM-125]
100 to 20000			CC(C)c1ccc(C(=O)c2cc(CCCc3ccccc3)c(O)c(O)c2O)cc1 [TM-126]
100 to 20000			O=C(c1ccc(Br)cc1)c1cc(CCCc2ccccc2)c(O)c(O)c1O [TM-128]
100 to 20000			CCCCCCCCCCCc1cc(O)c(O)c(O)c1CCCc1ccccc1 [TM-130]
100 to 20000			CC(C)Cc1ccc(Cc2cc(CCCc3ccccc3)c(O)c(O)c2O)cc1 [TM-132]
100 to 20000	> 1000		Cc1ccc(Cc2ccc(Cc3cc(CCCc4ccccc4)c(O)c(O)c3O)cc2)cc1 [TM-133]
100 to 20000			CC(C)Cc1ccc(Cc2cc(CCCC3CCCCC3)c(O)c(O)c2O)cc1 [TM-134]
100 to 20000			O=C(c1ccc(Cc2cc(CCCc3ccccc3)c(O)c(O)c2O)cc1)c1cccc(O)c1O [TM-135]
100 to 20000			Oc1cccc(Cc2ccc(Cc3cc(CCCC4CCCCC4)c(O)c(O)c3O)cc2)c1O [TM-136]
100 to 20000			O=C(c1cccc(Br)c1)c1cc(CCCc2ccccc2)c(O)c(O)c1O [TM-137]
> 20000			Cc1cc(C(=O)c2cc(Cc3ccccc3)c(O)c(O)c2O)c(C(C)C)cc1O [TM-143]
100 to 20000			Cc1cc(Cc2cc(Cc3ccccc3)c(O)c(O)c2O)c(C(C)C)cc1Oc1ccc(C(F)(F)F)cc1[N+](=O)[O-] [TM-144]
100 to 20000			Cc1cc(Cc2cc(Cc3ccccc3)c(O)c(O)c2O)c(C(C)C)cc1Oc1ccc([N+](=O)[O-])c(C(F)(F)F)c1 [TM-145]
100 to 20000			Cc1cc(Cc2cc(Cc3ccccc3)c(O)c(O)c2O)c(C(C)C)cc1Oc1ccc([N+](=O)[O-])cc1C(F)(F)F [TM-146]
100 to 20000			Cc1cc(Cc2cc(Cc3ccccc3)c(O)c(O)c2O)c(C(C)C)cc1Oc1ccnc2ccccc12 [TM-147]
100 to 20000			Cc1cc(C(=O)c2cc(Cc3ccccc3)c(O)c(O)c2O)c(C(C)C)cc1Oc1ccc(C(F)(F)F)cc1[N+](=O)[O-] [TM-148]

IC50 [1] [nM]	IC50 [2] [nM]	IC50 [3] [nM]	SMILES
100 to 20000			Cc1cc(C(=O)c2cc(Cc3ccccc3)c(O)c(O)c2O)c(C(C)C)cc1Oc1ccc([N+](=O)[O-])c(C(F)(F)F)c1 [TM-149]
100 to 20000			Cc1cc(Cc2cc(Cc3ccccc3)c(O)c(O)c2O)c(C(C)C)cc1Oc1ccc2ccccc2n1 [TM-150]
100 to 20000			CC(C)c1cc(Cc2cc(Cc3ccccc3)c(O)c(O)c2O)ccc1O [TM-152]
100 to 20000			CC(C)c1cc(Cc2cc(Cc3ccccc3)c(O)c(O)c2O)ccc1Oc1ccc2ccccc2n1 [TM-153]
100 to 20000			CC(C)c1cc(Cc2cc(Cc3ccccc3)c(O)c(O)c2O)ccc1Oc1ccnc2ccccc12 [TM-154]
100 to 20000			CC(C)c1cc(Cc2cc(Cc3ccccc3)c(O)c(O)c2O)ccc1Oc1ccc([N+](=O)[O-])cc1C(F)(F)F [TM-155]
100 to 20000			Cc1cc(Oc2ccc(Cc3cc(Cc4ccccc4)c(O)c(O)c3O)cc2C(C)C)c2ccccc2n1 [TM-156]
100 to 20000			O=C(c1ccc(Oc2ccccc2)cc1)c1ccc(O)c(O)c1O [TM-166]
100 to 20000			O=C(c1ccc(Oc2ccccc2)cc1)c1cc(C(=O)c2cccc3ccccc23)c(O)c(O)c1O [TM-168]
100 to 20000			O=C(c1ccc(Oc2ccccc2)cc1)c1cc(C(=O)c2ccc(Oc3ccccc3)cc2)c(O)c(O)c1O [TM-170]
	> 1000	> 1000	O=C(c1cc(C(=O)c2cccc3ccccc23)c(O)c(O)c1O)c1cccc2ccccc12 [TM-174]
	> 1000	> 1000	O=C(c1ccc2ccccc2c1)c1cc(C(=O)c2ccc3ccccc3c2)c(O)c(O)c1O [TM-175]
	> 1000	> 1000	O=C(c1cc(C(=O)C2N=C3C=CC=CC3S2)c(O)c(O)c1O)C1N=C2C=CC=CC2S1 (stereo not drawn) [TM-176]
	> 1000	> 1000	COc1c(C(=O)C2N=C3C=CC=CC3S2)cc(C(=O)C2N=C3C=CC=CC3S2)c(O)c1O (stereo not drawn) [TM-178]
	> 1000		O=C(c1ccc(Oc2ccccc2)cc1)c1cc(C(=O)c2nc3ccccc3s2)c(O)c(O)c1O [TM-179]
	> 1000		O=C(c1ccc(Oc2ccc(S(=O)(=O)N3CCCCC3)c(Cl)c2)cc1)c1cc(C(=O)c2nc3ccccc3s2)c(O)c(O)c1O [TM-180]
	> 1000		O=C(c1ccc(Oc2ccccc2)cc1)c1cc(C(=O)c2nc3ccccc3o2)c(O)c(O)c1O [TM-183]
	> 1000	≤ 1000	O=C(c1cc(S(=O)(=O)N2CCc3ccc(S(=O)(=O)N4CCCCC4)cc3C2)c(O)c(O)c1O)N1CCc2ccccc2C1 [TM-190]
	> 1000	≤ 1000	O=C(NCc1ccccc1)c1cc(S(=O)(=O)N2CCc3ccc(S(=O)(=O)N4CCCCC4)cc3C2)c(O)c(O)c1O [TM-192]
	> 1000	> 1000	O=C(c1cc(S(=O)(=O)N2CCc3ccccc3C2)c(O)c(O)c1O)N1CCc2ccc(S(=O)(=O)N3CCCCC3)cc2C1 [TM-193]
	> 1000	> 1000	CC(C)CNS(=O)(=O)c1ccc2c(c1)CN(C(=O)c1cc(S(=O)(=O)N3CCc4ccccc4C3)c(O)c(O)c1O)CC2 [TM-194]

IC50 [1] [nM]	IC50 [2] [nM]	IC50 [3] [nM]	SMILES
	> 1000	> 1000	O=C(c1cc(S(=O)(=O)N2CCc3ccccc3C2)c(O)c(O)c1O)N1CCc2ccc(S(=O)(=O)Nc3ccccc3)cc2C1 [TM-195]
	> 1000	> 1000	O=C(c1cc(S(=O)(=O)N2CCc3ccccc3C2)c(O)c(O)c1O)N1CCc2ccc(S(=O)(=O)NCc3ccccc3)cc2C1 [TM-196]
	> 1000	≤ 1000	O=C(c1cc(S(=O)(=O)N2CCc3ccccc3C2)c(O)c(O)c1O)N1CCc2ccc(S(=O)(=O)NCCc3ccccc3)cc2C1 [TM-197]
	> 1000	> 1000	O=C(c1cc(S(=O)(=O)N2CCc3ccccc3C2)c(O)c(O)c1O)N1CCc2ccc(S(=O)(=O)NCC(c3ccccc3)c3ccccc3)cc2C1 [TM-198]
	> 1000	> 1000	NC(=O)[C@H](Cc1ccccc1)NS(=O)(=O)c1ccc2c(c1)CN(C(=O)c1cc(S(=O)(=O)N3CCc4ccccc4C3)c(O)c(O)c1O)CC2 [TM-199]
	> 1000	> 1000	O=C(c1cc(S(=O)(=O)N2CCc3ccccc3C2)c(O)c(O)c1O)N1CCc2ccc(S(=O)(=O)N[C@@H](Cc3ccccc3)C(=O)N3CCCCC3)cc2C1 [TM-1200]
	> 1000	> 1000	CN(Cc1ccccc1)S(=O)(=O)c1cc(C(=O)N2CCc3ccc(S(=O)(=O)NCCc4ccccc4)cc3C2)c(O)c(O)c1O [TM-1201]
	> 1000	> 1000	O=C(c1cc(S(=O)(=O)N2CCc3ccccc3C2)c(O)c(O)c1O)N1CCc2ccc(S(=O)(=O)N[C@@H](Cc3ccccc3)C(=O)N3CCN(C(=O)C(F)(F)F)CC3)cc2C1 [TM-1202]
	> 1000	≤ 1000	O=C(c1cc(S(=O)(=O)N2CCc3ccccc3C2)c(O)c(O)c1O)N1CCc2ccc(S(=O)(=O)N3CCC(Cc4ccccc4)CC3)cc2C1 [TM-1203]
	> 1000	≤ 1000	CN(CCc1ccccc1)S(=O)(=O)c1cc(C(=O)N2CCc3ccc(S(=O)(=O)NCCc4ccccc4)cc3C2)c(O)c(O)c1O [TM-1205]
	> 1000	≤ 1000	CN(CCc1ccccc1)S(=O)(=O)c1ccc2c(c1)CN(C(=O)c1cc(S(=O)(=O)N3CCc4ccccc4C3)c(O)c(O)c1O)CC2 [TM-1207]
	> 1000	≤ 1000	O=C(c1cc(S(=O)(=O)N2CCc3ccccc3C2)c(O)c(O)c1O)N1CCc2ccc(S(=O)(=O)NCCc3cccc(Cl)c3)cc2C1 [TM-1208]
	> 1000	≤ 1000	O=C(c1cc(S(=O)(=O)N2CCc3ccccc3C2)c(O)c(O)c1O)N1CCc2ccc(S(=O)(=O)NCCc3ccc(Cl)cc3)cc2C1 [TM-1209]
	> 1000	≤ 1000	NS(=O)(=O)c1ccc(CCNS(=O)(=O)c2ccc3c(c2)CN(C(=O)c2cc(S(=O)(=O)N4CCc5ccccc5C4)c(O)c(O)c2O)CC3)cc1 [TM-1210]
	> 1000	≤ 1000	O=C(c1cc(S(=O)(=O)N2CCc3ccccc3C2)c(O)c(O)c1O)N1CCc2ccc(S(=O)(=O)NCCc3cccc(Oc4ccccc4)c3)cc2C1 [TM-1211]
	> 1000	> 1000	O=C(c1cc(S(=O)(=O)N2CCc3ccccc3C2)c(O)c(O)c1O)N1CCc2ccc(S(=O)(=O)NCCc3ccc(Oc4ccccc4)cc3)cc2C1 [TM-1212]
	> 1000	≤ 1000	O=C(c1cc(S(=O)(=O)N2CCc3ccccc3C2)c(O)c(O)c1O)N1CCc2ccc(S(=O)(=O)NCCCc3ccccc3)cc2C1 [TM-1213]
	> 1000	> 1000	O=C(c1cc(S(=O)(=O)N2CCc3ccccc3C2)c(O)c(O)c1O)N1CCc2ccccc2C1 [TM-1214]
	> 1000	> 1000	CNS(=O)(=O)c1ccc2c(c1)CN(C(=O)c1cc(S(=O)(=O)N3CCc4ccccc4C3)c(O)c(O)c1O)CC2 [TM-1215]
	> 1000	≤ 1000	CCC(CC)CNS(=O)(=O)c1ccc2c(c1)CN(C(=O)c1cc(S(=O)(=O)N3CCc4ccccc4C3)c(O)c(O)c1O)CC2 [TM-1216]
	> 1000	> 1000	CNS(=O)(=O)c1cc(C(=O)N2CCc3ccc(S(=O)(=O)NCCc4ccccc4)cc3C2)c(O)c(O)c1O [TM-1217]
